Source: publication PMC11532403 (Signal Transduction and Targeted Therapy, 2024)
“And” between values parts separate entries of the source, which are not always exact repeats. Equal values may be shown once.

System: RET-altered solid tumors
Assay: Phase 1 trial: anti-tumor efficacy (RECIST 1.1)
Type: in vivo, human
Settings: for PFS Follow-up (m) / PFS: Type of event: individual patients; for Best overall response: Partial response / Best overall response: Progressive disease / Best overall response: Stable disease / DCR, % (95% CI) / Median DoR, months (95% CI) / Median PFS, months (95% CI) / Median TTR, months (95% CI) / ORR, % (95% CI): patients with detectable RET variations
Procedure: Radiologic tumor assessments were conducted by computed tomography (CT) or magnetic resonance imaging (MRI) of brain, chest, abdomen, and pelvis at baseline, 4 weeks for the first tumor assessment, then every 8 weeks (± 7 days) for 1 year, and every 12 weeks (± 7 days) thereafter. MTC patients were longitudinally monitored for serum calcitonin and carcinoembryonic antigen (CEA) levels.

[1] = RP2D, PTC, treatment-naïve (n = 1)
[2] = Treatment-naïve, 40 mg BID (n = 1)
[3] = Treatment-naïve, 160 mg BID (n = 37)
[4] = Treatment-naïve, 200 mg BID (n = 2)
[5] = Treatment-naïve, all doses (n = 40)
[6] = baseline ctDNA detectable RET alterations (n = 61)
[7] = baseline ctDNA undetectable RET alterations (n = 53)
[8] = ctDNA analysis, all patients (n = 114)

SMILES: COc1ccc(CN2C3CC2CN(c2ccc(-c4cc(N5CC(C)(O)C5)cn5ncc(C#N)c45)cn2)C3)cn1 [SY-5007, 6-(3-hydroxy-3-methylazetidin-1-yl)-4-(6-(6-((6-methoxypyridin-3-yl)methyl)-3,6-diazabicyclo[3.1.1]heptan-3-yl)pyridin-3-yl)pyrazolo[1,5-a]pyridine-3-carbonitrile]
- ORR (95% CI) [1]: 0 (0.0-97.5) %
- Partial response [1]: 0 (0.0) n (%)
- Progressive disease [1]: 0 (0.0) n (%)
- Stable disease [1]: 1 (100.0) n (%)
- Median PFS (95% CI) [2]: 1.67 (NE-NE) months
- ORR (95% CI) [2]: 0 (0.0–97.5) %
- Partial response [2]: 0 (0.0) n (%)
- Progressive disease [2]: 0 (0.0) n (%)
- Stable disease [2]: 1 (100.0) n (%)
- DCR (95% CI) (Treatment-naïve, 40 mg BID (n = 1), 40 mg twice daily): 100.0 (2.5–100.0) %
- DCR (95% CI) [3]: 94.6 (81.8–99.3) %
- Median DoR (95% CI) [3]: 14.5 (9.26-NE) months
- Median PFS (95% CI) [3]: 15.5 (9.23-NE) months
- Median TTR (95% CI) [3]: 2.75 (0.98–2.89) months
- ORR (95% CI) [3]: 70.3 (53.0–84.1) %
- Partial response [3]: 26 (70.3) n (%)
- Progressive disease [3]: 2 (5.4) n (%)
- Stable disease [3]: 9 (24.3) n (%)
- DCR (95% CI) [4]: 100.0 (15.8–100.0) %
- Median DoR (95% CI) [4]: 5.32 (5.06-NE) months
- Median PFS (95% CI) [4]: 6.22 (5.98-NE) months
- Median TTR (95% CI) [4]: 0.93 (0.91-NE) months
- ORR (95% CI) [4]: 100.0 (15.8–100.0) %
- Partial response [4]: 2 (100.0) n (%)
- Progressive disease [4]: 0 (0.0) n (%)
- Stable disease [4]: 0 (0.0) n (%)
- DCR (95% CI) [5]: 95.0 (83.1–99.4) %
- Median DoR (95% CI) [5]: 14.5 (6.47–NE) months
- Median PFS (95% CI) [5]: 15.5 (9.23–NE) months
- Median TTR (95% CI) [5]: 2.75 (0.95–2.89) months
- ORR (95% CI) [5]: 70.0 (53.5–83.4) %
- Partial response [5]: 28 (70.0) n (%)
- Progressive disease [5]: 2 (5.0) n (%)
- Stable disease [5]: 10 (25.0) n (%)
- Estimated 6-month PFS rate (all patients): 86.1%
- Estimated 12-month PFS rate (all patients): 68.9%
- Patients with progression events or death (all patients in phase 1): 29 (23.8%) n (%)
- DCR (95% CI) [6]: 96.7 (88.7-99.6) %
- Median DoR (95% CI) [6]: 13.0 (9.23-19.9) months
- Median PFS (95% CI) [6]: 13.8 (10.0-15.5) months
- Median TTR (95% CI) [6]: 2.79 (1.01-6.73) months
- ORR (95% CI) [6]: 57.4 (44.1-70.0) %
- Partial response [6]: 35 (57.4) n (%)
- Progressive disease [6]: 2 (3.3) n (%)
- Stable disease [6]: 24 (39.3) n (%)
- DCR (95% CI) [7]: 94.3 (84.3-98.8) %
- Median TTR (95% CI) [7]: 3.15 (2.75-6.30) months
- ORR (95% CI) [7]: 60.4 (46.0-73.5) %
- Partial response [7]: 32 (60.4) n (%)
- Progressive disease [7]: 3 (5.7) n (%)
- Stable disease [7]: 18 (34.0) n (%)
- DCR (95% CI) [8]: 95.6 (90.1-98.6) %
- Median DoR (95% CI) [8]: 19.9 (12.8-NE) months
- Median PFS (95% CI) [8]: 21.1 (13.8-NE) months
- Median TTR (95% CI) [8]: 2.79 (2.75-4.66) months
- ORR (95% CI) [8]: 58.8 (49.2-67.9) %
- Partial response [8]: 67 (58.8) n (%)
- Progressive disease [8]: 5 (4.4) n (%)
- Stable disease [8]: 42 (36.8) n (%)
- ORR (ctDNA-detectable KIF5B-RET (27/46)): 58.7%
- ORR (ctDNA-detectable RET mutations (3/9)): 33.3%
- ORR (ctDNA-detectable other RET fusions (5/7)): 71.4%
- Median PFS (detectable RET, concomitant TP53 mutation): 10.1 months
- ORR (detectable RET, concomitant TP53 mutation (11/22)): 50.0%
- Median PFS (detectable RET, without TP53 mutation): 15.4 months
- ORR (detectable RET, without TP53 mutation (24/39)): 61.5%
- ORR (dose-escalation phase (9/17)): 52.9%
- DCR (dose-escalation phase (16/17)): 94.1%
- ORR (dose-expansion phase (58/99)): 58.6%
- DCR (dose-expansion phase (95/99)): 96.0%
- 1-year DoR rate (in vivo): 74.1%
- PFS Follow-up (m) (GC, 160mg BID): 1.02 m
- PFS: Type of event (GC, 160mg BID): Censoring
- PFS Follow-up (m) (MTC, 160mg BID): 5.75 m and 0.99 m and 2.76 m and 2.66 m and 6.41 m and 4.60 m and 0.85 m and 0.92 m and 14.72 m and 6.44 m and 11.96 m and 6.51 m and 13.90 m and 8.41 m and 4.57 m and 8.51 m and 6.60 m and 2.86 m and 8.38 m
- PFS: Type of event (MTC, 160mg BID): Censoring
- PFS Follow-up (m) (NSCLC, 20mg BID): 27.14 m
- PFS Follow-up (m) (NSCLC, 20mg QD): 4.83 m
- PFS: Type of event (NSCLC, 20mg QD): Censoring
- PFS Follow-up (m) (NSCLC, 40mg BID): 25.07 m and 10.29 m and 1.68 m
- PFS: Type of event (NSCLC, 40mg BID): Censoring
- PFS Follow-up (m) (NSCLC, 80mg BID): 23.30 m and 6.64 m and 23.23 m
- PFS: Type of event (NSCLC, 80mg BID): Censoring
- PFS Follow-up (m) (NSCLC, 120mg BID): 21.39 m and 21.42 m and 21.13 m
- PFS: Type of event (NSCLC, 120mg BID): Censoring
- PFS Follow-up (m) (NSCLC, 200mg BID): 11.99 m and 11.96 m and 5.98 m and 5.75 m and 17.74 m and 3.15 m and 6.47 m and 12.16 m and 0.89 m
- PFS: Type of event (NSCLC, 200mg BID): Censoring
- PFS Follow-up (m) (PTC, 160mg BID): 8.35 m and 2.79 m and 8.38 m and 8.48 m and 6.67 m and 2.89 m and 2.92 m
- ORR (non-clearance or unknown RET alterations at Cycle 1 Day 28 (16/42)): 38.1%
- Best overall response: Partial response (TP53 mutant, n=22): 11 (50.0)
- Best overall response: Progressive disease (TP53 mutant, n=22): 0 (0.0)
- Best overall response: Stable disease (TP53 mutant, n=22): 11 (50.0)
- DCR, % (95% CI) (TP53 mutant, n=22): 100.0 (84.6-100.0) %
- Median DoR, months (95% CI) (TP53 mutant, n=22): 13.0 (2.82-NE) months
- Median PFS, months (95% CI) (TP53 mutant, n=22): 10.1 (6.21-NE) months
- Median TTR, months (95% CI) (TP53 mutant, n=22): 2.89 (0.95-NE) months
- ORR, % (95% CI) (TP53 mutant, n=22): 50.0 (28.2-71.8) %
- Best overall response: Partial response (TP53 wild-type, n=39): 24 (61.5)
- Best overall response: Progressive disease (TP53 wild-type, n=39): 2 (5.1)
- Best overall response: Stable disease (TP53 wild-type, n=39): 13 (33.3)
- DCR, % (95% CI) (TP53 wild-type, n=39): 94.9 (82.7-99.4) %
- Median DoR, months (95% CI) (TP53 wild-type, n=39): 19.9 (6.47-NE) months
- Median PFS, months (95% CI) (TP53 wild-type, n=39): 15.4 (9.23-NE) months
- Median TTR, months (95% CI) (TP53 wild-type, n=39): 2.79 (0.98-6.73) months
- ORR, % (95% CI) (TP53 wild-type, n=39): 61.5 (44.6-76.6) %
- Best overall response: Partial response (all patients, n=61): 35 (57.4)
- Best overall response: Progressive disease (all patients, n=61): 2 (3.3)
- Best overall response: Stable disease (all patients, n=61): 24 (39.3)
- DCR, % (95% CI) (all patients, n=61): 96.7 (88.7-99.6) %
- Median DoR, months (95% CI) (all patients, n=61): 13.0 (9.23-19.9) months
- Median PFS, months (95% CI) (all patients, n=61): 13.8 (10.0-15.5) months
- Median TTR, months (95% CI) (all patients, n=61): 2.79 (1.01-6.73) months
- ORR, % (95% CI) (all patients, n=61): 57.4 (44.1-70.0) %
- ORR (patients with rapid ctDNA clearance of RET alteration): 100%
- Median TTR (patients with rapid ctDNA decline/clearance of RET alteration): 0.91 months
